Experiments:
[1] = test system: cocklebur; experiment: Test B preemergence/postemergence greenhouse plant response rating 0 to 10; type: in vivo, Xanthium pensylvanicum; conditions: 0 to 10 scale
Procedure, shortened: (§1)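 Postemergence treatment of plants two to eighteen cm tall ran alongside preemergence treatment of planted seed, each using compound in a non-phytotoxic solvent.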

[2] = test system: soybean; experiment: Test C preemergence/postemergence greenhouse plant response rating 0 to 100; type: in vivo, Glycine max; conditions: POSTEMERGENCE; for Plant response rating, Soybean: 0 to 100 scale
Procedure, shortened: (§2)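 Compounds in non-phytotoxic solvent went onto sandy loam before emergence (seeded one day earlier) or onto plants at the one-to-four leaf stage. Duck salad was treated via flood water (~2.5 cm, maintained) over silt loam.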

[3] = test system: lambsquarters; experiment: Test B preemergence/postemergence greenhouse plant response rating 0 to 10; type: in vivo, Chenopodium album; conditions: 0 to 10 scale
Procedure, shortened: as §1

[4] = test system: barley; experiment: as above; type: in vivo, Hordeum vulgare; conditions: 0 to 10 scale
Procedure, shortened: as §1

[5] = test system: blackgrass; experiment: Test C preemergence/postemergence greenhouse plant response rating 0 to 100; type: in vivo, Alopecurus myosuroides; conditions: POSTEMERGENCE; for Plant response rating, Blackgrass: 0 to 100 scale
Procedure, shortened: as §2

[6] = test system: soybean; experiment: Test B preemergence/postemergence greenhouse plant response rating 0 to 10; type: in vivo, Glycine max; conditions: 0 to 10 scale
Procedure, shortened: as §1

[7] = test system: cheatgrass; experiment: as above; type: in vivo, Bromus secalinus; conditions: 0 to 10 scale
Procedure, shortened: as §1

[8] = test system: giant foxtail; experiment: as above; type: in vivo, Setaria faberii; conditions: 0 to 10 scale
Procedure, shortened: as §1

[9] = test system: velvetleaf; experiment: as above; type: in vivo, Abutilon theophrasti; conditions: 0 to 10 scale
Procedure, shortened: as §1

[10] = test system: morningglory; experiment: Test C preemergence/postemergence greenhouse plant response rating 0 to 100; type: in vivo, Ipomoea hederacea; conditions: POSTEMERGENCE; for Plant response rating, Morningglory: 0 to 100 scale
Procedure, shortened: as §2

[11] = test system: sorghum; experiment: as above; type: in vivo, Sorghum bicolor; conditions: POSTEMERGENCE; for Plant response rating, Sorghum: 0 to 100 scale
Procedure, shortened: as §2

[12] = test system: morningglory; experiment: Test B preemergence/postemergence greenhouse plant response rating 0 to 10; type: in vivo, Ipomoea hederacea; conditions: 0 to 10 scale
Procedure, shortened: as §1

[13] = test system: rice; experiment: Test C flood test plant response rating 0 to 100; type: in vivo, Oryza sativa; conditions: for Plant response rating (0 to 100), Rice Japonica: under POSTEMERGENCE head (flood test species); for Plant response rating Rice Japonica: flood test species listed under POSTEMERGENCE, 0 to 100 scale
Procedure, shortened: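 Compounds in non-phytotoxic solvent applied preemergence to sandy loam one day after planting, postemergence at the 1–4 leaf stage, or to ~2.5 cm floodwater over silt loam.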

[14] = test system: rape; experiment: Test C preemergence/postemergence greenhouse plant response rating 0 to 100; type: in vivo, Brassica napus; conditions: POSTEMERGENCE; for Plant response rating, Rape: 0 to 100 scale
Procedure, shortened: as §2

[15] = test system: chickweed; experiment: as above; type: in vivo, Stellaria media; conditions: POSTEMERGENCE; for Plant response rating, Chickweed: 0 to 100 scale
Procedure, shortened: as §2

[16] = test system: giant foxtail; experiment: as above; type: in vivo, Setaria faberii; conditions: POSTEMERGENCE; for Plant response rating, Giant foxtail: 0 to 100 scale
Procedure, shortened: as §2

[17] = test system: barley; experiment: as above; type: in vivo, Hordeum vulgare; conditions: POSTEMERGENCE; for Plant response rating Barley Igri: 0 to 100 scale
Procedure, shortened: as §2

[18] = test system: bedstraw; experiment: Test B preemergence/postemergence greenhouse plant response rating 0 to 10; type: in vivo, Galium aparine; conditions: 0 to 10 scale
Procedure, shortened: as §1

CCOC(=O)COc1cc(-c2nn3c(c2Cl)CCCC3)c(F)cc1Cl [Compound 42]
Plant response rating, Cocklebur ([1]; POSTEMERGENCE, Rate 50 g/ha): 10
Plant response rating, Cocklebur ([1]; POSTEMERGENCE, Rate 200 g/ha): 10
Plant response rating, Cocklebur ([1]; PREEMERGENCE, Rate 50 g/ha): 0
Plant response rating, Cocklebur ([1]; Rate 200 g/ha, PREEMERGENCE): 0
Plant response rating, Soybean ([2]; 62 g/ha): 60
Plant response rating, Soybean ([2]; 125 g/ha): 80
Plant response rating (0 to 100), Soybean ([2]; Rate 16 g/ha): 20
Plant response rating (0 to 100), Soybean ([2]; Rate 31 g/ha): 40
Plant response rating, Lambsquarter ([3]; POSTEMERGENCE, Rate 50 g/ha): 9
Plant response rating, Lambsquarter ([3]; PREEMERGENCE, Rate 50 g/ha): 9
Plant response rating, Lambsquarter ([3]; Rate 200 g/ha, POSTEMERGENCE): 10
Plant response rating, Lambsquarter ([3]; Rate 200 g/ha, PREEMERGENCE): 10
Plant response rating, Barley ([4]; POSTEMERGENCE, Rate 50 g/ha): 3
Plant response rating, Barley ([4]; POSTEMERGENCE, Rate 200 g/ha): 4
Plant response rating, Barley ([4]; PREEMERGENCE, Rate 50 g/ha): 0
Plant response rating, Barley ([4]; Rate 200 g/ha, PREEMERGENCE): 0
Plant response rating, Blackgrass ([5]; 62 g/ha): 30
Plant response rating, Blackgrass ([5]; 125 g/ha): 30
Plant response rating (0 to 100), Blackgrass ([5]; Rate 16 g/ha): 10
Plant response rating (0 to 100), Blackgrass ([5]; Rate 31 g/ha): 20
Plant response rating, Soybean ([6]; POSTEMERGENCE, Rate 50 g/ha): 4
Plant response rating, Soybean ([6]; PREEMERGENCE, Rate 50 g/ha): 0
Plant response rating, Soybean ([6]; Rate 200 g/ha, POSTEMERGENCE): 5
Plant response rating, Soybean ([6]; Rate 200 g/ha, PREEMERGENCE): 0
Plant response rating, Cheatgrass ([7]; POSTEMERGENCE, Rate 50 g/ha): 1
Plant response rating, Cheatgrass ([7]; POSTEMERGENCE, Rate 200 g/ha): 3
Plant response rating, Cheatgrass ([7]; PREEMERGENCE, Rate 50 g/ha): 0
Plant response rating, Cheatgrass ([7]; Rate 200 g/ha, PREEMERGENCE): 0
Plant response rating, Giant foxtail ([8]; POSTEMERGENCE, Rate 50 g/ha): 3
Plant response rating, Giant foxtail ([8]; PREEMERGENCE, Rate 50 g/ha): 0
Plant response rating, Giant foxtail ([8]; Rate 200 g/ha, POSTEMERGENCE): 4
Plant response rating, Giant foxtail ([8]; Rate 200 g/ha, PREEMERGENCE): 0
Plant response rating, Velvetleaf ([9]; POSTEMERGENCE, Rate 50 g/ha): 10
Plant response rating, Velvetleaf ([9]; PREEMERGENCE, Rate 50 g/ha): 0
Plant response rating, Velvetleaf ([9]; Rate 200 g/ha, POSTEMERGENCE): 10
Plant response rating, Velvetleaf ([9]; Rate 200 g/ha, PREEMERGENCE): 6
Plant response rating, Morningglory ([10]; 62 g/ha): 100
Plant response rating, Morningglory ([10]; 125 g/ha): 100
Plant response rating (0 to 100), Morningglory ([10]; Rate 16 g/ha): 90
Plant response rating (0 to 100), Morningglory ([10]; Rate 31 g/ha): 95
Plant response rating, Sorghum ([11]; 62 g/ha): 60
Plant response rating, Sorghum ([11]; 125 g/ha): 70
Plant response rating (0 to 100), Sorghum ([11]; Rate 16 g/ha): 40
Plant response rating (0 to 100), Sorghum ([11]; Rate 31 g/ha): 50
Plant response rating, Morningglory ([12]; POSTEMERGENCE, Rate 50 g/ha): 9
Plant response rating, Morningglory ([12]; PREEMERGENCE, Rate 50 g/ha): 0
Plant response rating, Morningglory ([12]; Rate 200 g/ha, POSTEMERGENCE): 10
Plant response rating, Morningglory ([12]; Rate 200 g/ha, PREEMERGENCE): 3
Plant response rating (0 to 100), Rice Japonica ([13]; Rate 16 g/ha): 0
Plant response rating (0 to 100), Rice Japonica ([13]; Rate 31 g/ha): 10
Plant response rating Rice Japonica ([13]; 62 g/ha): 20
Plant response rating Rice Japonica ([13]; 125 g/ha): 40
Plant response rating, Rape ([14]; 62 g/ha): 95
Plant response rating, Rape ([14]; 125 g/ha): 100
Plant response rating (0 to 100), Rape ([14]; Rate 16 g/ha): 50
Plant response rating (0 to 100), Rape ([14]; Rate 31 g/ha): 70
Plant response rating, Chickweed ([15]; 62 g/ha): 50
Plant response rating, Chickweed ([15]; 125 g/ha): 60
Plant response rating (0 to 100), Chickweed ([15]; Rate 16 g/ha): 20
Plant response rating (0 to 100), Chickweed ([15]; Rate 31 g/ha): 40
Plant response rating, Giant foxtail ([16]; 62 g/ha): 50
Plant response rating, Giant foxtail ([16]; 125 g/ha): 70
Plant response rating (0 to 100), Giant foxtail ([16]; Rate 16 g/ha): 30
Plant response rating (0 to 100), Giant foxtail ([16]; Rate 31 g/ha): 30
Plant response rating Barley Igri ([17]; 62 g/ha): 30
Plant response rating Barley Igri ([17]; 125 g/ha): 40
Plant response rating (0 to 100), Barley Igri ([17]; Rate 16 g/ha): 20
Plant response rating (0 to 100), Barley Igri ([17]; Rate 31 g/ha): 30
Plant response rating, Bedstraw ([18]; POSTEMERGENCE, Rate 50 g/ha): 10
Plant response rating, Bedstraw ([18]; POSTEMERGENCE, Rate 200 g/ha): 9
Plant response rating, Bedstraw ([18]; PREEMERGENCE, Rate 50 g/ha): 7
Plant response rating, Bedstraw ([18]; Rate 200 g/ha, PREEMERGENCE): 9

Reference: patent publication US6358885B1, “Substituted phenylheterocyclic herbicides” (Mississippi State University, priority 1992, dated 2002)
